Measured values from patent US20240216410A1, “METHODS AND COMPOSITIONS FOR TREATING CANCER THERAPY-INDUCED NEUTROPENIC FEVER AND/OR GVHD” (BOARD OF REGENTS, THE UNIVERSITY OF TEXAS SYSTEM, priority 2021, published 2024).

How the values were obtained:
[1] = system: colonic mucus layer; assay: Murine GVHD model: colonic mucus layer thickness (PAS staining); format: in vivo, mice; settings: day 18; vs untreated GVHD mice and syngeneic mice
Experimental: Next, assessed was the impact of meropenem treatment on the dense colonic mucus layer of mice with GVHD.
Allo-HSCT recipient mice were treated with meropenem as in FIG. 15A and with xylose from days 13 to 20 (FIG. 18F). […] Importantly, in vitro, growth of mouse and human-derived BT in carbohydrate-poor media was augmented by xylose (FIG. 23B).
Xylose administration. D-(+)-xylose (X3877, SIGMA-ALDRICH®) was dissolved in phosphate buffer pH 8.0 with meropenem or in water without meropenem and given at a concentration of 0.5% from days 13 to 20 after allo-HSCT.
Histological and immunohistochemistry analysis. […] Pathology scores were quantified by a blinded pathologist. […] Sections were imaged using an APERIO® AT2.

[2] = Murine GVHD model: colonic luminal carbohydrates by acid hydrolysis and IC-MS; format: in vivo; settings: day 18; mice with GVHD
Excerpt: BT is known to be a versatile utilizer of a variety of carbohydrate sources derived from the diet, including xylose via the xylose isomerase pathway, as well as host glycans. […] Host mucin glycans are particularly low on the metabolic hierarchy and are typically targeted only after other dietary polysaccharides have been depleted (43). […] Thus, in some embodiments, levels of soluble carbohydrates in the colonic lumen may be perturbed by meropenem treatment, given that it is shown herein that meropenem depletes the abundance of commensal Clostridia, which function to metabolize dietary fibers and starches (45). Using acid hydrolysis followed by ion chromatography-mass spectrometry (IC-MS), levels of monosaccharide subunits comprising soluble luminal polysaccharides were characterized in the colon of mice.
Carbohydrates analysis by IC-MS. To determine the relative abundance of carbohydrates in mouse feces samples, extracts were prepared and analyzed by ultra-HRMS. Fecal pellets were homogenized with a […]® Tissue Homogenizer. Metabolites were extracted using 1 mL ice-cold 80/20 (v/v) methanol/water. Extracts were centrifuged at 17,000 g for 5 min at 4° C., and supernatants were transferred to clean tubes, followed by evaporation to dryness under nitrogen. Dried extracts were reconstituted in deionized water, and 5 μL was injected for analysis by IC-MS. […]

[3] = format: in vivo, mice
Experimental: The mucus layer provides a critical contribution to the intestinal barrier by excluding bacteria from the intestinal lumen adjacent to the intestinal epithelium. […] Translocating bacteria included Enterococcus faecalis, Enterococcus gallinarum, Lactobacillus johnsonii, and BT (FIGS. 17D-17E).
Immunostaining and fluorescence in situ hybridization. […] Paraffin-embedded sections were dewaxed and hydrated. Sections were incubated with 1 μg Alexa Fluor 594-conjugated EUB338 (5′-[…]-3′; SEQ ID NO:1) for detection of all bacteria in 200 μL of hybridization buffer (750 mM NaCl, 100 mM Tris-HCl (pH 7.4), 5 mM EDTA, 0.01% BSA, 10% dextran sulfate) at 40° C. for 16 hours. Sections were rinsed in wash buffer (50 mM NaCl, 4 mM Tris-HCl (pH 7.4), 0.02 mM EDTA), washed at 45° ° C. for 20 min, stained with anti-Muc2 antibody [C3] (GTX100664, GeneTex) and counterstained with DAPI (Vector Laboratories). Photographs of sections were obtained using a fluorescent microscope (Nikon NIS Elements, Advanced Research version 4.20).
Microbiologic analysis of bacterial translocation. Mesenteric lymph nodes (MLNs) were harvested from mice and homogenized in PBS and cultured anaerobically on BHI plates containing yeast extract and 5% sterilized rumen fluid (THERMO FISHER […]™)) and Columbia blood agar plates (BD) for 4 days at 37° ° C. Colony-forming units (CFUs) were counted and adjusted per organ. […]

## C[C@@H](O)[C@H]1C(=O)N2C(C(=O)O)=C(S[C@@H]3CN[C@H](C(=O)N(C)C)C3)[C@H](C)[C@H]12 [meropenem]
[1]
  colonic mucus layer thickness: significantly thinned colonic mucus layer
[2]
  concentrations of soluble luminal polysaccharide monosaccharide subunits: significantly lower concentrations of arabinose- and xylose-derived polysaccharides
[3]; day 18
  bacterial loads cultivated from MLNs: higher bacterial loads
[3]; mice with GVHD
  bacteria in mucus layer and lamina propria (16S FISH): dissemination of bacteria into the mucus layer and lamina propria of the colon
Meropenem in drinking water days 3 to 15 vs control allo-HSCT mice
  survival after allo-HSCT: significantly worsened survival
mouse, in vivo
  GVHD histological scores in the colon: significantly higher
  GVHD histology in the small intestine and liver: not substantially different
  epithelial damage in the colon (H&E): severe epithelial damage in the colon
